Data as given in ChEMBL document CHEMBL4765228, “Indole-like Trk receptor antagonists” (Eur J Med Chem, 2016).

How the values were obtained:
[1] = target: 5'-AMP-activated protein kinase catalytic subunit alpha-1 (Homo sapiens) (UniProt Q13131); experiment: Inhibition of human AMPKalpha1 (1 to 550 residues assessed as residual activity at 0.1 uM relative to control
[2] = target: Calcium/calmodulin-dependent protein kinase type 1D (Homo sapiens) (UniProt Q8IU85); experiment: Inhibition of human CAMK1D assessed as residual activity at 1 uM relative to control
Calcium/calmodulin-dependent protein kinase type 1D (Homo sapiens), sequence (Q8IU85 whole entry, looked up): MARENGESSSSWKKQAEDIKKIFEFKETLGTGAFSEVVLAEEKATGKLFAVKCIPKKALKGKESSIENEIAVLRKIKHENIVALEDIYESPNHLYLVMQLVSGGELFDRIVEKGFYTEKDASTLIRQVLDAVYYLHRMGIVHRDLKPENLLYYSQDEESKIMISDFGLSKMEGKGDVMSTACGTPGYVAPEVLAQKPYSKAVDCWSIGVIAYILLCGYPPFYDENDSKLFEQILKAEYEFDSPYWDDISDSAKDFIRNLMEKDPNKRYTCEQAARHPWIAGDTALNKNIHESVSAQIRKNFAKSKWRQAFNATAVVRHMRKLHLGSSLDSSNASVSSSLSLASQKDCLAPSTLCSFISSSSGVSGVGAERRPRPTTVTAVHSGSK

[3] = target: Serine/threonine-protein kinase Chk2 (Homo sapiens) (UniProt O96017); experiment: Inhibition of human CHK2 assessed as residual activity at 1 uM relative to control
Serine/threonine-protein kinase Chk2 (Homo sapiens), sequence (O96017 whole entry): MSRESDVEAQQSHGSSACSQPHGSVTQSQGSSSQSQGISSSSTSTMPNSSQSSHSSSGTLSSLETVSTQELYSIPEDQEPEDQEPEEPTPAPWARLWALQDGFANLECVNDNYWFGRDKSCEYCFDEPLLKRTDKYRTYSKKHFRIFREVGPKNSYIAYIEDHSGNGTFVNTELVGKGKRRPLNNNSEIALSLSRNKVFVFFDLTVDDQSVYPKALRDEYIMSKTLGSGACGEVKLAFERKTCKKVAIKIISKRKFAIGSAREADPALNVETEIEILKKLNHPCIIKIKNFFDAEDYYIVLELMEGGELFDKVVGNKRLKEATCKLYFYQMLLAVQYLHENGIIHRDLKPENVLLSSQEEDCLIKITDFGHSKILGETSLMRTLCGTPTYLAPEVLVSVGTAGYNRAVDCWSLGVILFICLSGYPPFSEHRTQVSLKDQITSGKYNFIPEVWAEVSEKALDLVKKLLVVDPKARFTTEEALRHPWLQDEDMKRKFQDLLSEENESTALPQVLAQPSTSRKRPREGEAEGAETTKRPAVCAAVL

[4] = target: Dual specificity tyrosine-phosphorylation-regulated kinase 1A (Homo sapiens) (UniProt Q13627); experiment: Inhibition of human DYRK1A assessed as residual activity at 1 uM relative to control
[5] = target: Receptor tyrosine-protein kinase erbB-4 (Homo sapiens) (UniProt Q15303); experiment: Inhibition of human ERBB4 assessed as residual activity at 0.1 uM relative to control
[6] = target: Homeodomain-interacting protein kinase 2 (Homo sapiens) (UniProt Q9H2X6); experiment: Inhibition of human HIPK2 assessed as residual activity at 1 uM relative to control
[7] = target: Insulin-like growth factor 1 receptor (Homo sapiens) (UniProt P08069); experiment: Inhibition of human IGF1R assessed as residual activity at 1 uM relative to control
Insulin-like growth factor 1 receptor (Homo sapiens), sequence (P08069 31-736 limits assumed): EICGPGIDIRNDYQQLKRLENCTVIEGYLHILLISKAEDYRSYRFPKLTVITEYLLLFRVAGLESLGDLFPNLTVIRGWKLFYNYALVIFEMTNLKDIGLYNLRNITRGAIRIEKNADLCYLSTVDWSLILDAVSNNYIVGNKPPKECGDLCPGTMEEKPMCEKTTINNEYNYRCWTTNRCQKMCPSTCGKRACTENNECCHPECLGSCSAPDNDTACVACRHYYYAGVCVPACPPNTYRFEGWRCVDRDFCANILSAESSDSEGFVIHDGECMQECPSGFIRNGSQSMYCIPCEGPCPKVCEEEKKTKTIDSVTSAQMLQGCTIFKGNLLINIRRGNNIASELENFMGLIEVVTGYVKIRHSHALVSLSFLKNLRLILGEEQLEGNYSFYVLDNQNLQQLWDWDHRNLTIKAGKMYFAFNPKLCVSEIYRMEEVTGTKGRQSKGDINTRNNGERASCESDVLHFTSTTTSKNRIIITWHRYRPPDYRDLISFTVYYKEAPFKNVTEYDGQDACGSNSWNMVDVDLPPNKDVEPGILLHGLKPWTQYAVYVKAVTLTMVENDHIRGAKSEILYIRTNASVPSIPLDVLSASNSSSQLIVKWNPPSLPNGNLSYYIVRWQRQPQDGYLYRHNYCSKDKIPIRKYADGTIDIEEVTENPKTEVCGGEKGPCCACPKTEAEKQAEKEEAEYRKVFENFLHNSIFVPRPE
Insulin-like growth factor 1 receptor (Homo sapiens), sequence (P08069 741-1367 limits assumed): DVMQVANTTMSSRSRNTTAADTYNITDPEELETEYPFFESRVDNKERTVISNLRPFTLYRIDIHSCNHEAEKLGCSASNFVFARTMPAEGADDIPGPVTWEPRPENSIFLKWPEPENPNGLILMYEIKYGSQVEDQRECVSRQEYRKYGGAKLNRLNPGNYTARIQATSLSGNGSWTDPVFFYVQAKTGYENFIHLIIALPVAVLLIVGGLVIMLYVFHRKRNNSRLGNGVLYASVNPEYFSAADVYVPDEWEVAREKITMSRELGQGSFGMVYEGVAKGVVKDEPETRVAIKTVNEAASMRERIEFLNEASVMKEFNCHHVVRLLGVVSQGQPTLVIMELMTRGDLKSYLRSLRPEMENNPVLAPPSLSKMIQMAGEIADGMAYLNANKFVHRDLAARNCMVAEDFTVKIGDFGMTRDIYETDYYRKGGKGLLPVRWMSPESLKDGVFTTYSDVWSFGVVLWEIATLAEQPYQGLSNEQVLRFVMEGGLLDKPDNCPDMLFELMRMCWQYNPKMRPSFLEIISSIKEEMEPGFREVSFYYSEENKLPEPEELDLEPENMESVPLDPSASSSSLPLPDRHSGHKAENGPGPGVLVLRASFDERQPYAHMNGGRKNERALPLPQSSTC

[8] = target: Mitogen-activated protein kinase 8 (Homo sapiens) (UniProt P45983); experiment: Inhibition of human JNK1 assessed as residual activity at 1 uM relative to control
Mitogen-activated protein kinase 8 (Homo sapiens), sequence (P45983 whole entry): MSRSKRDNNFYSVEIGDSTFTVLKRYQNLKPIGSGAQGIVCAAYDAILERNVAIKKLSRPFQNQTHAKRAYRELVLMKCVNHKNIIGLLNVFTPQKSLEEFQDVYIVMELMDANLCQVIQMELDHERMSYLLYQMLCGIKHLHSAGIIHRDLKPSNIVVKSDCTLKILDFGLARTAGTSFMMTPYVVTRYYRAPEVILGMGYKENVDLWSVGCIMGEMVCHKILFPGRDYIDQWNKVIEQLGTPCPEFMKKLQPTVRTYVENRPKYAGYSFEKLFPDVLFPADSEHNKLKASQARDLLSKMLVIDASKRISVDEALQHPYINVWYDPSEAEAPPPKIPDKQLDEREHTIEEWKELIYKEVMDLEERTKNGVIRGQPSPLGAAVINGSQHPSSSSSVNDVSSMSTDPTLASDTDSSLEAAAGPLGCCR

[9] = target: Mitogen-activated protein kinase kinase kinase 11 (Homo sapiens) (UniProt Q16584); experiment: Inhibition of human MAP3K11 assessed as residual activity at 1 uM relative to control
Mitogen-activated protein kinase kinase kinase 11 (Homo sapiens), sequence (Q16584 whole entry, looked up): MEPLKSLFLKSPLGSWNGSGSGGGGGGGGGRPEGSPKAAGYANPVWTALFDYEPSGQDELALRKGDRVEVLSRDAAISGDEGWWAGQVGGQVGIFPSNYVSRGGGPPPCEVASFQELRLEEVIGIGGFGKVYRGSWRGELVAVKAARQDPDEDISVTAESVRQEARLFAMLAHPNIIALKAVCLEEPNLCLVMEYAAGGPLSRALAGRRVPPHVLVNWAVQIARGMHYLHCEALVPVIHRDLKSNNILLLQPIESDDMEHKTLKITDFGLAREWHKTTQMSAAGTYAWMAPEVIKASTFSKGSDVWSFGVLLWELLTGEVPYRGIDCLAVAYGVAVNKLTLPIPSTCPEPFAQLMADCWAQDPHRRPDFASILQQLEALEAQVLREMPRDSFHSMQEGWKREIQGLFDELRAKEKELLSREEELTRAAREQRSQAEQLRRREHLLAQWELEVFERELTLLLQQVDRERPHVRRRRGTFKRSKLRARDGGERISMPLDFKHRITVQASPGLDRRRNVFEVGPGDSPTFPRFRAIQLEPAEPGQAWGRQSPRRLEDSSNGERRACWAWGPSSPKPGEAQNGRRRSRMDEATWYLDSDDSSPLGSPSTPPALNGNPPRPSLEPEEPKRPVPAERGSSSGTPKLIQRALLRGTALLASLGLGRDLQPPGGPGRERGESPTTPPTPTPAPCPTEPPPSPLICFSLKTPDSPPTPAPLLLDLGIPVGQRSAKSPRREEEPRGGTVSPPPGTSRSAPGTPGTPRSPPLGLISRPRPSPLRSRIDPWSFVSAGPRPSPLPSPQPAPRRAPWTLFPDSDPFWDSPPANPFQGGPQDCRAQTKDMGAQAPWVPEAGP

[10] = target: T1, Mitogen-activated protein kinase kinase kinase 7 (Homo sapiens) (UniProt O43318); experiment: Inhibition of human MAP3K7 assessed as residual activity at 0.1 uM relative to control
T1 sequence (whole entry): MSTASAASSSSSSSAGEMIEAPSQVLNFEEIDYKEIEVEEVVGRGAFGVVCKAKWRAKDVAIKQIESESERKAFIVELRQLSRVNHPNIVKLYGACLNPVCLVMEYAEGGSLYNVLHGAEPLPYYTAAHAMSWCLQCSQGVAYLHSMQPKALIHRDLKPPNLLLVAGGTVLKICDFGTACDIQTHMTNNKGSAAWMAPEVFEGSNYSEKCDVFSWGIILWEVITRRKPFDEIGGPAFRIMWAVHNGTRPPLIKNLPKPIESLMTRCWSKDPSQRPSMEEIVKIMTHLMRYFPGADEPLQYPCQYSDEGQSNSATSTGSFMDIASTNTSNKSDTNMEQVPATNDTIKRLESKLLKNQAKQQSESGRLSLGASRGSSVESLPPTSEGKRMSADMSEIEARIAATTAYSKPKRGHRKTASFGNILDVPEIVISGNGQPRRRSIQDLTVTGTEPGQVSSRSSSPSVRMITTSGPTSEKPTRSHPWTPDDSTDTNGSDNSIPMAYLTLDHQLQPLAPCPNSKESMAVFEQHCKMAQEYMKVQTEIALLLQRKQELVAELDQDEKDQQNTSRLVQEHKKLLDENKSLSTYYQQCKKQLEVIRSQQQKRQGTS

[11] = target: MAP/microtubule affinity-regulating kinase 3 (Homo sapiens) (UniProt P27448); experiment: Inhibition of human MARK3 assessed as residual activity at 1 uM relative to control
MAP/microtubule affinity-regulating kinase 3 (Homo sapiens), sequence (P27448 whole entry, looked up): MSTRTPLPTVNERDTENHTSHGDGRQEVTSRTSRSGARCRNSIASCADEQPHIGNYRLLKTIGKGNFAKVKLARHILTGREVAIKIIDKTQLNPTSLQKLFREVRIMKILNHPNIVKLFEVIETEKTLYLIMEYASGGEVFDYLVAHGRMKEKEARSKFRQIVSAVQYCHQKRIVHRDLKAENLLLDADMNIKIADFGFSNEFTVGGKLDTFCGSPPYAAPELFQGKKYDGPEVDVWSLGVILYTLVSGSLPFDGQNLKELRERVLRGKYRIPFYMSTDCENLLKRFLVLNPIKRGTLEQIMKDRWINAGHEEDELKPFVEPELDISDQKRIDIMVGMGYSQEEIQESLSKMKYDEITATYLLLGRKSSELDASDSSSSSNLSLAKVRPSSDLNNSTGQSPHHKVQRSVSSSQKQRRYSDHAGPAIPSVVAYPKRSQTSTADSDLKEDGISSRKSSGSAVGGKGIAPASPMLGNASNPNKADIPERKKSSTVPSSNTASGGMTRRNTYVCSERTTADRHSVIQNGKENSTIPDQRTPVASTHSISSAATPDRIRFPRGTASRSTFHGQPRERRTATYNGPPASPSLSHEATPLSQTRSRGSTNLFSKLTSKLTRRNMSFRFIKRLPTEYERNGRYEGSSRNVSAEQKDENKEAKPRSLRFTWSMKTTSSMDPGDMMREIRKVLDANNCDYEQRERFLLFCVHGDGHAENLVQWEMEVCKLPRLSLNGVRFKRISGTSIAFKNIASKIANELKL

[12] = target: T2, Serine/threonine-protein kinase 3 (Homo sapiens) (UniProt Q13188); experiment: Inhibition of human MST2 assessed as residual activity at 0.1 uM relative to control
T2 sequence (whole entry): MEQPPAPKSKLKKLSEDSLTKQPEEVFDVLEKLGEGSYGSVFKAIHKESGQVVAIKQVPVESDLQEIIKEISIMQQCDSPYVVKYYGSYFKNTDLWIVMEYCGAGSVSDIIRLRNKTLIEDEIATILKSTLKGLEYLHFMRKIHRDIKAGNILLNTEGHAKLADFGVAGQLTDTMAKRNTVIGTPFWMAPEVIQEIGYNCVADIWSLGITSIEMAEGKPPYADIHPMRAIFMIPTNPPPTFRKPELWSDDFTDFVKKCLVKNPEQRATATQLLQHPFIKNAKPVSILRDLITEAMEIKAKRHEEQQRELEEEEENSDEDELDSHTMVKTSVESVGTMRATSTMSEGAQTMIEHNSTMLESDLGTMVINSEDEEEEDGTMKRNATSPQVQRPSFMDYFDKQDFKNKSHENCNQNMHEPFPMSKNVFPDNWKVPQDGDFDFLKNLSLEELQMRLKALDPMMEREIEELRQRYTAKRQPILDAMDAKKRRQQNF

[13] = species on record: Homo sapiens; experiment: Inhibition of human PKA assessed as residual activity at 0.1 uM relative to control
[14] = species on record: Homo sapiens; experiment: Inhibition of human S6K assessed as residual activity at 1 uM relative to control
[15] = target: T3, Serine/threonine-protein kinase Sgk1 (Homo sapiens) (UniProt O00141); experiment: Inhibition of human SGK1 assessed as residual activity at 0.1 uM relative to control
T3 sequence (whole entry): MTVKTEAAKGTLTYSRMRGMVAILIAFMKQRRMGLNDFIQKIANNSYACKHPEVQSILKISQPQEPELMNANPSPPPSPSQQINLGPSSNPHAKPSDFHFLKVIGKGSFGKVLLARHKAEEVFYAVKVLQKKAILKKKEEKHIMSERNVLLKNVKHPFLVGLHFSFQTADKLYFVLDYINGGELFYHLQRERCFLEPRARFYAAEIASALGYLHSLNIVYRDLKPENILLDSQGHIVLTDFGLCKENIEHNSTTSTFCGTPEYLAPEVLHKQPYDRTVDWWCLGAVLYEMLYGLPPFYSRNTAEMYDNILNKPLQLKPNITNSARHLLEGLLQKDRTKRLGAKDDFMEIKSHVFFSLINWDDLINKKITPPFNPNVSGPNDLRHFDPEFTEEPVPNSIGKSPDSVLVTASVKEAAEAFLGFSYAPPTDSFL

[16] = target: Proto-oncogene tyrosine-protein kinase Src (Homo sapiens) (UniProt P12931); experiment: Inhibition of human GST-HIS-tagged SRC assessed as residual activity at 0.1 uM relative to control
Proto-oncogene tyrosine-protein kinase Src (Homo sapiens), sequence (P12931 2-536 limits assumed): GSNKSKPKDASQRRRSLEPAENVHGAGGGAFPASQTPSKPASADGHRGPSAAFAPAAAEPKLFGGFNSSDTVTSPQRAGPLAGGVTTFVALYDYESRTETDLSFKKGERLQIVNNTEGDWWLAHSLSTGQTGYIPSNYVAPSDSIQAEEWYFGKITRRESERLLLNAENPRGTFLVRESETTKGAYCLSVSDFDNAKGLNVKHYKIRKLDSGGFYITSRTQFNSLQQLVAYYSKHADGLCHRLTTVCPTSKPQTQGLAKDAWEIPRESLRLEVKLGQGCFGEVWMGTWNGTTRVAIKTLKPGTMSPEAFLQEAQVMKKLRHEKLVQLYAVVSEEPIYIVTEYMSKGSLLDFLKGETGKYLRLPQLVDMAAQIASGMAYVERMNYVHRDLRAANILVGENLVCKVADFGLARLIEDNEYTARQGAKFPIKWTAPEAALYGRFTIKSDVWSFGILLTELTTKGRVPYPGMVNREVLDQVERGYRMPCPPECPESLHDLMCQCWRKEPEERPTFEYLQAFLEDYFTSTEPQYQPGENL

[17] = target: Proto-oncogene tyrosine-protein kinase Src (Homo sapiens) (UniProt P12931); experiment: Inhibition of human GST-HIS-tagged SRC assessed as residual activity at 1 uM relative to control
[18] = target: 3-phosphoinositide-dependent protein kinase 1 (Homo sapiens) (UniProt O15530); experiment: Inhibition of human PDK1 assessed as residual activity at 0.1 uM relative to control

Row | SMILES | Activity [1] [%] | Activity [2] [%] | Activity [3] [%] | Activity [4] [%] | Activity [5] [%] | Activity [6] [%] | Activity [7] [%] | Activity [8] [%] | Activity [9] [%] | Activity [10] [%] | Activity [11] [%] | Activity [12] [%] | Activity [13] [%] | Activity [14] [%] | Activity [15] [%] | Activity [16] [%] | Activity [17] [%] | Activity [18] [%]
1 | COc1ccc2[nH]cc(/C=C3\C(=O)Nc4ccc(S(N)(=O)=O)cc43)c2c1 | 101 | 94 | 12 | 96 | 94 | 84 | 97 | 87 | 25 | 93 | 93 | 101 | 88 | 70 | 85 | 107 | 74 | 98
2 | COc1ccc2c(c1)c(/C=C1\C(=O)Nc3ccc(S(=O)(=O)N(C)C)cc31)cn2C | 98 | 94 | 99 | 94 | 103 | 85 | 79 | 100 | 37 | 106 | 97 | 101 | 91 | 85 | 90 | 93 | 70 | 99
3 | COc1ccc2c(c1)c(/C=C1\C(=O)Nc3ccc(S(N)(=O)=O)cc31)cn2C | 94 | 97 | 39 | 99 | 101 | 81 | 100 | 95 | 38 | 93 | 90 | 86 | 91 | 92 | 80 | 113 | 91 | 93
4 | Cn1cc(/C=C2\C(=O)Nc3ccc(S(N)(=O)=O)cc32)c2ccccc21 | 83 | 90 | 5 | 114 | 94 | 103 | 107 | 94 | 12 | 85 | 88 | 91 | 94 | 81 | 81 | 124 | 108 | 90
5 | CNS(=O)(=O)c1ccc2c(c1)/C(=C/c1cn(C)c3ccc(OC)cc13)C(=O)N2 | 104 | 80 | 75 | 95 | 98 | 102 | 60 | 112 | 55 | 104 | 87 | 95 | 91 | 83 | 94 | 92 | 73 | 92
6 | CN(C)S(=O)(=O)c1ccc2c(c1)/C(=C/c1cn(C)c3ccc(O)cc13)C(=O)N2 | 103 | 103 | 92 | 101 | 110 | 96 | 95 | 97 | 51 | 101 | 96 | 98 | 94 | 92 | 87 | 79 | 68 | 94
